Reference: patent publication US20250206845A1, “PHARMACEUTICAL COMPOSITION INCLUDING RHO-KINASE INHIBITOR FOR PREVENTION OR TREATMENT OF CUTANEOUS FIBROTIC DISORDERS SUCH AS KELOID, ETC. AND USE THEREOF” (Seoul National University R&DB Foundation, priority 2022, published 2025)
Like-named read-outs stand apart in the source and are kept apart here.

How the values were obtained:
[1] = system: keloid nodules formed by human keloid fibroblasts; experiment: In vivo histological and immunohistochemical analysis of keloid nodules; parameters: species or system SCID mice
Experimental: A isolates nodules from mice treated with DMSO or Y-27632. […] Original magnification: ×200, scale bar=100 μm.
Nodules were harvested 14 days after initial cell injection, fixed in 4% paraformaldehyde at 4° C. for 24 hours, washed with water for at least 4 hours, and finally embedded in paraffin. Paraffin sections (4 μm thick) were stained with hematoxylin and eosin (H&E, ab245880, Abcam, Cambridge, UK) and MT (TRM-2, ScyTek, Logan, Utah, USA) according to the manufacturer's instructions. The cytoplasm (400× magnification) of H&E-stained sections and the collagen density (400× magnification) of MT-stained sections were checked for each section using an Olympus BX53 microscope (Olympus Corporation, Shinjuku, Japan). Screenshots of three fine fields (right, center, and left) were acquired. The number of inflammatory cells per unit area (0.1 mm^2) was calculated using Olympus cellSens standard imaging software. The optical density of collagen was measured using ImageJ Immunohistochemical staining by avidin-biotin complex method. Briefly, paraformaldehyde (4%) fixed specimens were embedded in paraffin and cut into 4 μm thickness. The sections were dried at 56° C. for 1 hour, and then subjected to deparaffinization and rehydration steps with xylene. The sections were then cultured with trypsin enzyme antigen retrieval solution (ab970, Abcam, Cambridge, UK) at 37° C. for 30 min. Overnight culture was performed with primary antibodies at 4° C. After three washes with Tris-buffered saline containing 0.025% Triton-100, the second antibody was applied to each section at room temperature for 30 min. Images were taken in three fields (right, center, and left) with an Olympus BX53 microscope and analyzed with Image J software.

[2] = system: keloid nodules formed by human keloid fibroblasts; experiment: Patient-derived keloid xenograft SCID mouse model of nodule formation (nodule volume and weight); format: in vivo; settings: SCID mice, Y-27632 20 mg/kg injected into nodule
Experimental: Approval for animal experiments was obtained from the Animal Experiment Performance Committee of Seoul National University Boramae Hospital (Approval No.: 2019-0031). Male NOD.CB17-Prkdc scid/J (SCID) mice (5 weeks old, weight: 22.58±0.91 g) were purchased from Charles River Japan (Yokohama, Japan). All animal experimental procedures were performed in accordance with the guidelines of the Animal Experiment Research Committee of Seoul Boramae Hospital. All experiments were performed under aseptic conditions. Under anesthesia using isoflurane, the dorsal furs of seven SCID mice were removed, the midline was marked, and then a 26-gauge needle was used in a 1-ml syringe (Becton, Dickinson and Company, Franklin Lakes, NJ, USA). These cells were obtained from seven patients who underwent keloid resection at Seoul National University Boramae Hospital. The cells were injected approximately 1 cm apart from the left and right sides of the most prominent area of the mouse's back. […] The nodules were measured every 2 to 3 days with calipers, and nodule volume was calculated using the following equation: Nodule volume=½×A×B2, where A=length in millimeters, B=width in millimeters. To collect the nodules 14 days after keloid fibroblast injection, the surrounding skin was carefully separated using forceps and a blade, and only the nodules were collected and weighed.

[3] = system: ROCK1; settings: FIG. 4A
Experimental: Mechanical stretching was applied to keloid fibroblasts using a mechanical stretching device (STB-1400; Strex Inc., Osaka, Japan). Briefly, the keloid fibroblasts were seeded at a density of 1.2×10^5 cells in a strex stretch chamber (STB-CH-10 Strex Inc., Osaka, Japan) pre-coated with 20 μg/ml rat tail type I collagen (C7661, Sigma Aldrich). After allowing attachment for overnight incubation, the strex stretch chamber was moved to the stretching device and mounted on a hook. The flexible silicone chamber was exposed to stretching with a length of 0-20% tension at a frequency of 10 cycles/min (0.166 Hz) for 24 hours. […] Cells of the control group were cultured in the same type of chamber in an incubator.
ROCK1 kinase activity was analyzed with a ROCK activity assay kit (Cell Biolabs, CA, USA) according to the manufacturer's instructions. The ROCK activity assay kit is an enzyme immunoassay designed to detect the phosphorylation level of myosin phosphatase target subunit 1 at Thr696 by ROCK. […] The cells were harvested, trypsinized, and washed twice with PBS. […] Protein concentrations were determined using the Pierce BCA Quantification Protein Kit (Thermo Fisher Scientific, MA, USA). […] The absorbance was read at 450 nm with a SpectraMax Plus 384 microplate reader (Molecular Devices, San Jose, CA, USA).

[4] = system: YAP and MRTF; experiment: Nuclear translocation of YAP and MRTF during stretching (subcellular fractionation, Western blotting); format: cell-based, human; settings: stretched keloid fibroblasts, FIG. 6
Source text: A is a Western blotting analysis of nuclear translocation of YAP and MRTF in the subcellular fraction of keloid fibroblasts subjected to or not subjected to mechanical stretching with or without Y-27632. B is a quantitative analysis of cytoplasmic and nuclear expression levels of MRTF and YAP. The results were expressed as the mean with SD (n=5). Student's t test was used for all analyses. *P<0.05. Nuclear/cytoplasmic extracts were separated separately using NE-Per Nuclear and Cytoplamic Extractons Reagents (#78833, Thermo Scientific, MA, USA) according to the manufacturer's instructions. Subcellular fractionation lysis was analyzed by Western blotting analysis for YAP (#5157, Cell Signaling, MA, USA), MRTF (sc-47724, Santa Cruz, CA, USA) including GADPH ([…], Santa Cruz, CA, USA) and Lamin B (#12586, Cell Signaling, MA, USA) as internal markers for cytoplasmic and nuclear fractions, respectively. The quantification was performed with Image J software.

[5] = system: F-actin; experiment: F-actin immunofluorescence in keloid fibroblasts; format: cell-based, human
Experimental: Immunofluorescence confocal microscopy experiments were performed with antibodies to F-actin (green) and vinculin (orange). Scale bar=50 μm. Quantification of fluorescence intensity was shown. The experiments were performed in triplicate. Student's t test was used for all analyses. * P<0.05. […] Scale bar=50 μm. The results were expressed as the mean with SD (n=5). The experiments were performed in triplicate. Student's t test was used for all analyses. * P<0.05. […] Cells were washed twice with cold PBS and fixed overnight at 4° C. with 4% (w/v) paraformaldehyde. […] The cells were exposed to blocking buffer (1% BSA/PBS) for 30 min at room temperature and then exposed to Alexa Fluor 488-conjugated phalloidin (#A12379, Invitrogen, USA) in 1% BSA/0.1% Triton X-100/PBS for 1 hour at room temperature. After three washing steps, the cells were mounted with DAPI mounting medium, sealed with coverslip, and examined using a confocal laser scanning microscope (LSM 900; Carl Zeiss, NY, USA).

[6] = system: phosphorylated cofilin and myosin light chain (MLC); experiment: Western blotting of p-MLC/MLC and p-cofilin/cofilin in keloid fibroblasts; format: cell-based, human; settings: keloid fibroblasts with or without stretch, Y-27632, FIG. 4C
Experimental: Scale bar=50 μm. The results were expressed as the mean with SD (n=5). The experiments were performed in triplicate. Student's t test was used for all analyses. * P<0.05. […] To obtain whole-cell extracts, cells were lysed with Pierce Cell Lysis Buffer (Thermo Fisher, MA, USA) containing phosphatase inhibitors and protease inhibitors. Protein extracts (30 μg) were analyzed by sodium dodecyl sulfate polyacrylamide gel electrophoresis (SDS-PAGE) and transferred to a polyvinylidene difluoride membrane. […] GAPDH was used as a loading control for Western blotting analysis.

[7] = system: keloid fibroblasts; experiment: Cell viability / proliferation of keloid fibroblasts (CCK-8); format: cell-based, human; settings: increasing dose of Y-27632, 24 hours, FIG. 3A
Experimental: Immunofluorescence confocal microscopy experiments were performed with antibodies to F-actin (green) and vinculin (orange). Scale bar=50 μm. Quantification of fluorescence intensity was shown. The experiments were performed in triplicate. Student's t test was used for all analyses. * P<0.05. […] Briefly, human skin and keloid tissues were collected from five patients who underwent surgical resection at Seoul National University Boramae Hospital. The samples were rinsed three times with Dulbecco's phosphate-buffered saline containing 1% antibiotic-antifungal solution (A/A; Welgene, Gyeongsangbuk-do, Korea) and cut into 3 mm thick pieces. The tissues were then placed in 5 mg/ml dispase solution (Roche, Basel, Switzerland) for 4 hours at 37° C. The dermis and epidermis were separated, chopped into 1-mm thick pieces, and digested in 3 mg/ml collagenase type I (Thermo Fisher, MA, USA) to obtain a single cell suspension. The cells were cultured in Dulbecco's modified Eagle's medium (DMEM; Biowest, Nuaillé, France) containing 10% fetal bovine serum (FBS; Biowest, France) and 1% Antibiotic/Antimycotic Solution (Welgene Inc., Korea) in a humidified incubator at 37° C. and 5% CO2. […] The effect of stretch stimulation on the proliferation of normal and keloid fibroblasts was evaluated by the CCK-8 assay. […] The experiments were performed in triplicate and the data are expressed as the mean±SD.

[8] = system: COL1A1, COL3A1, Fibronectin, α-SMA, CTGF, PCNA mRNA; experiment: qRT-PCR of pro-fibrotic genes in keloid fibroblasts; format: cell-based, human; settings: mechanically stimulated keloid fibroblasts, FIG. 5A
Experimental: Scale bar=200 μm. The results were expressed as the mean with SD (n=5). Student's t test was used for all analyses. * P<0.05. […] Total RNA was extracted using TRIzol reagent (Thermo Fisher Scientific, MA, USA). RNA (1000 ng) was subjected to cDNA synthesis using oligo (dT) random primers (Integrated DNA Technologies, IA, US) and AccuPower RT PreMix (Bioneer, South Korea) according to the following procedure: qRT-PCR was performed with PowerUp SYBR green master mix on a StepOnePlus real-time PCR System (Applied Biosystems, CA, USA) at 42° C. for 60 min and 95° C. for 5 min. The mRNA levels of each gene were normalized to the mRNA levels of GAPDH. The PCR steps are composed of an initial denaturation step at 94° C. for 5 min; at 94° C. for 1 min (denaturation), 55° C. for 1 min (annealing), and 72° C. for 2 min (extension); and a final extension step at 72° C. for 7 min. […] Relative expression was calculated using the 2-ΔΔCt method.

[9] = system: keloid fibroblasts; experiment: Transwell migration analysis of keloid fibroblasts; format: cell-based, human; settings: under mechanical force (stretch 24 hours), 10 μM Y-27632, transwell 24 hours, FIG. 5B
Experimental: Scale bar=200 μm. The results were expressed as the mean with SD (n=5). Student's t test was used for all analyses. * P<0.05.
For migration analysis using Transwell […] pore-size polycarbonate membrane (#3422, Corning Inc., ME, USA). […] As a control, static cells were cultured in a strex stretch chamber under the same conditions without stretch stimulation. Keloid cells were then harvested and counted, and 2×10^4 cells were resuspended in 150 μL of medium containing 1% FBS and reintroduced into the upper compartment of the insert. The lower compartment was filled with 500 μL of medium containing 2% FBS as a chemoattractant. The cells were allowed to migrate for 24 hours at 37° C. The cells were fixed in 4% PFA, permeabilized with 0.1% Triton X-100 in PBS for 10 min, and stained with hematoxylin for 10 min at room temperature. After washing with PBS, non-migrated cells were removed from the upper insert by a cotton swab. The polycarbonate membrane was removed from the insert and mounted on a slide. Fields of migrated cells were captured with an inverted microscope (Leica Microsystems GmbH, Wetzlar, Germany). The migration area was evaluated as a purple area extracted from each image, and analyzed with Image J software as a percentage of the migrated area.

**Q.** With C[C@@H](N)[C@H]1CC[C@H](C(=O)Nc2ccncc2)CC1 [Y-27632] as the compound, how does the “inflammatory cells in the keloid region” value ([1]; H&E staining, compared to the control group) read?
**A.** reduced inflammatory cells

**Q.** What about the “deposition of collagen bundles (MT staining)” value ([1]; control group compared to the Y-27632-treated group) of the same compound?
**A.** higher deposition of collagen bundles in the control group

**Q.** And the “protein expression of VEGF, SMA, vimentin, collagen type I, and collagen type III” value ([1]; immunohistochemistry of nodule tissue, compared to the DMSO-treated group, FIG. 7B)?
**A.** significantly reduced

**Q.** And the “weight of keloid nodules compared to the control group” value [2]?
**A.** significantly reduced

**Q.** And the “mean volume of keloid nodules at the time of keloid nodule excision” value ([2]; DMSO control 21.27±13.98)?
**A.** 17.21±13.49 MM^3

**Q.** What about the “average weight of keloid nodules” value ([2]; control 7.61±3.16, FIG. 7A) of the same compound?
**A.** 4.56±3.50 Mg

**Q.** And the “decrease in the activity of ROCK1” value ([3]; keloid fibroblasts treated with Y-27632 (10 μM, 24 hours) and stretch-stimulated)?
**A.** 26%

**Q.** And the “decrease in the activity of ROCK1” value ([3]; keloid fibroblasts treated with Y-27632 alone (10 μM, 24 hours, static))?
**A.** 10.8%

**Q.** And the “nuclear import of YAP and MRTF” value [4]?
**A.** inhibiting nuclear import

**Q.** What about the “disruption of F-actin cytoskeletal structure” value ([5]; at 25 and 50 μM, 24 h, keloid fibroblasts) of the same compound?
**A.** dramatic disruption

**Q.** And the “cellular F-actin network” value ([5]; fibroblasts with or without mechanical stretching exposed to Y-27632, FIG. 4B)?
**A.** significantly disrupted

**Q.** What about the “F-actin fiber formation in keloid fibroblasts” value ([5]; increasing doses, 24 h, FIG. 3B) of the same compound?
**A.** tightly regulated by Y-27632 treatment in a dose-dependent manner

**Q.** What about the “expression of phosphorylated proteins (p-cofilin, p-MLC)” value [6] of the same compound?
**A.** greatest decrease

**Q.** And the “inhibitory effect on keloid fibroblast proliferation” value [7]?
**A.** No inhibitory effect

**Q.** What about the “mRNA levels of fibrotic genes (COL1A1, COL3A1, Fibronectin, α-SMA, CTGF, PCNA)” value [8] of the same compound?
**A.** decrease

**Q.** What about the “migration of keloid fibroblasts” value [9] of the same compound?
**A.** partially inhibited
